The molecules below were run against human O-GlcNAcase (Homo sapiens (Human), UniProt O60502) (assay: Fluorescence-based hOGA assay for determination of KI values for inhibition of O-GlcNAcase activity). Settings: purified human O-GlcNAcase, 4-Methylumbelliferyl N-acetyl-β-D-glucosaminide substrate, pH 7.0, Cheng-Prusoff.
Format: biochemical
Method: Assay for determination of KI values for inhibition of O-GlcNAcase activity Experimental procedure for kinetic analyses
Enzymatic reactions are carried out in a reaction containing 50 mM NaH2PO4, 100 mM NaCl and 0.1% BSA (pH 7.0) using 2 mM 4-Methylumbelliferyl N-acetyl-β-D-glucosaminide dihydrate (Sigma M2133) dissolved in ddH2O, as a substrate. The amount of purified human O-GlcNAcase enzyme used in the reaction is 0.7 nM. Test compound of varying concentrations is added to the enzyme prior to initiation of the reaction. The reaction is performed at room temperature in a 96-well plate and is initiated with the addition of substrate. The production of fluorescent product is measured every 60 sec for 45 min with a Tecan Infinite M200 plate-reader with excitation at 355 nm and emission detected at […], with 4-Methylumbelliferone (Sigma M1381) used to produce a standard curve. The slope of product production is determined for each concentration of compound tested and plotted, using standard curve fitting algorithms for sigmoidal dose response curves. The values for a four parameter logistic curve fit of the data are determined.
KI values are determined using the Cheng-Prusoff equation; the Km of O-GlcNacase for substrate is 0.2 mM.

human O-GlcNAcase, sequence (O60502 whole entry): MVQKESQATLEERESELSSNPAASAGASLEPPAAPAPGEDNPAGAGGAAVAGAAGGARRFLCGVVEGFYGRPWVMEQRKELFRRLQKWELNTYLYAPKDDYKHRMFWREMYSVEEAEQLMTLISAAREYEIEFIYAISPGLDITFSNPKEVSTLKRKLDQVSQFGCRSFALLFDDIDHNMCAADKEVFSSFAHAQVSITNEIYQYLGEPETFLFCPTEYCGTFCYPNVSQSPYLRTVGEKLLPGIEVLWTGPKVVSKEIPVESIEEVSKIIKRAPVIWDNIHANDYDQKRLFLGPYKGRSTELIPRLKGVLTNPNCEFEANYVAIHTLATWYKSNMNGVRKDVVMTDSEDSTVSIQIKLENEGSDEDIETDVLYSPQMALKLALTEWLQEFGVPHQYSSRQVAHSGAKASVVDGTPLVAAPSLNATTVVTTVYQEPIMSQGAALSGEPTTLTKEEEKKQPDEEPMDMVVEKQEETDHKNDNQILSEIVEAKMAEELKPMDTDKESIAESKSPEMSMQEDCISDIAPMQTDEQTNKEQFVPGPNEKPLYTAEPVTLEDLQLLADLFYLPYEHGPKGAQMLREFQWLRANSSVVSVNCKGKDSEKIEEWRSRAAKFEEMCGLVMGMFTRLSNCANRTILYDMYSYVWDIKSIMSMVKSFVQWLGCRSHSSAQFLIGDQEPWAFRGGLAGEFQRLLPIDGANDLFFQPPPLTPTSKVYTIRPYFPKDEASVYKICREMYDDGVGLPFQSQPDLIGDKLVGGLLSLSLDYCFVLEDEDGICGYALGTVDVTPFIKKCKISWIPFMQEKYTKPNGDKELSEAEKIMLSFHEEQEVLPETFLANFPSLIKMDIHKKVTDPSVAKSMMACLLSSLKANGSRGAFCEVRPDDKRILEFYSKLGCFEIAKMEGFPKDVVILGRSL

SMILES	Ki
C[C@@H](O)[C@@H]1C[C@H]2OC(N(C)C)=N[C@H]2[C@H](O)[C@H]1O (single isomer, unassigned) [Example 4]	0.437 µM
CN(C)C1=N[C@@H]2[C@@H](O)[C@H](O)[C@@H](C(C)(C)O)C[C@@H]2O1 [Example 3, (3aR,4R,5R,6S,7aS)-2-(Dimethylamino)-6-(2-hydroxypropan-2-yl)-3a,4,5,6,7,7a-hexahydro-benzo[d]oxazole-4,5-diol]	0.054 µM
CCCNC1=N[C@@H]2[C@@H](O)[C@H](O)[C@@H]([C@H](C)O)C[C@@H]2O1 [Example 5, (3aR,4R,5R,6R,7aS)-6-((S)-1-hydroxyethyl)-2-(propylamino)-3a,4,5,6,7,7a-hexahydrobenzo[d] oxazole-4,5-diol]	0.0071 µM
CNC1=N[C@@H]2[C@@H](O)[C@H](O)[C@@H]([C@H](C)O)C[C@@H]2O1 [Example 6, (3aR,4R,5R,6R,7aS)-6-((S)-1-hydroxyethyl)-2-(methylamino)-3a,4,5,6,7,7a-hexahydrobenzo[d] oxazole-4,5-diol]	0.00026 µM
C[C@H](O)[C@H]1C[C@@H]2SC(N(C)C)=N[C@@H]2[C@@H](O)[C@@H]1O [Example 10, (3aR,4R,5R,6R,7aS)-2-(dimethylamino)-6-((S)-1-hydroxyethyl)-3a,4,5,6,7,7a-hexahydrobenzo[d]thiazole-4,5-diol]	0.00014 µM

Further molecules by falling Ki, results first:

Ki	SMILES
1.67 µM	CCCNC1=N[C@@H]2[C@@H](O)[C@H](O)[C@@H](C(C)(C)O)C[C@@H]2O1 [Example 8, (3aR,4R,5R, 6S,7aS)-6-(2-hydroxy-propan-2-yl)-2-(propylamino)-3a,4,5,6,7,7a-hexahydro-benzo[d] oxazole-4,5-diol]
0.093 µM	CCNC1=N[C@@H]2[C@@H](O)[C@H](O)[C@@H](C(C)(C)O)C[C@@H]2O1 [Example 7, (3aR,4R,5R, 6S,7aS)-2-(ethylamino)-6-(2-hydroxy-propan-2-yl)-3a,4,5,6,7,7a-hexahydro-benzo[d] oxazole-4,5-diol]
0.014 µM	C[C@@H](O)[C@H]1C[C@@H]2SC(N(C)C)=N[C@@H]2[C@@H](O)[C@@H]1O [Example 9]
0.0045 µM	C[C@@H](O)[C@H]1C[C@@H]2OC(N(C)C)=N[C@@H]2[C@@H](O)[C@@H]1O [Example 1A, (3aR,4R,5R,6R,7aS)-2-(Dimethylamino)-6-((R)-1-hydroxyethyl)-3a,4,5,6,7,7a-hexahydrobenzo[d]oxazole-4,5-diol]
0.00026 µM	C[C@H](O)[C@H]1C[C@@H]2OC(N(C)C)=N[C@@H]2[C@@H](O)[C@@H]1O [Example 2, (3aR,4R,5R,6R,7aS)-2-(Dimethylamino)-6-((S)-1-hydroxyethyl)-3a,4,5,6,7,7a-hexahydro-benzo[d]oxazole-4,5-diol]
